Experimental data taken from patent US11236129B2, “IL-17A binding peptides and medical uses thereof” (Dompe' Farmaceutici S.P.A., priority 2018, dated 2022).
Residues, ends and D or L forms follow the SMILES beside them.

Biological target: IL-17RA/IL17RC dimerization induced by IL-17A (Homo sapiens, UniProt Q16552)
Assay: IL-17RA/IL17RC dimerization assay in response to IL-17A (PathHunter Cytokine Receptor Assay)
Format: cell-based
Settings: IL-17A at EC80; read-out: IC50 in IL-17RA/IL7RC dimerization assay
Experimental: The peptides of Table 7 were tested for their ability to inhibit the binding of IL-17A to its receptor and the subsequent interaction of IL-17RA and IL17RC.
Interleukin receptor RA and RC dimerization assay (DiscoverX) was used to measure the interaction of the receptor chains IL-17RA and IL17RC upon activation by IL-17A in the absence or presence of the peptides of Table 7.
In the PathHunter® Cytokine Receptor Assay, one cytokine receptor chain is tagged with a small peptide epitope ProLink (PK) and the other chain is tagged with Enzyme Acceptor (EA). Ligand binding induces dimerization of the two receptors, facilitating complementation of PK and EA fragments. This interaction generates an active unit of b-galactosidase, which is detected using a chemiluminescent substrate. PathHunter cell lines were expanded from freezer stocks according to standard procedures. Cells were seeded in a total volume of 20 μL into white walled, 384-well microplates and incubated for the appropriate time prior to testing. For agonist activity inhibition, cells were incubated with sample to induce response. Intermediate dilution of sample stocks was performed to generate 5× sample in assay buffer. 5 μL of 5× sample was added to cells and incubated at 37° C. or room temperature for 60 minutes. Vehicle concentration was 1%. 5 μL of 6×EC80 agonist (IL-17A) in assay buffer was added to the cells and incubated at 37° C. for 6 to 16 hours depending on the assay. 1. […] For some assays, activity was detected using a high sensitivity detection reagent (PathHunter Flash Kit) to improve assay performance. In these assays, an equal volume of detection reagent (25 or 30 uL) was added to the wells, followed by a one hour incubation at room temperature. Microplates were read following signal generation with a PerkinElmer Envision™ instrument for chemiluminescent signal detection. Compound activity was analyzed using CBIS data analysis suite (ChemInnovation, CA). % Inhibition=100%×(1−(mean RLU of test sample−mean RLU of vehicle control)/(mean RLU of EC80 control−mean RLU of vehicle control)).

Chain of IL-17RA/IL17RC dimerization induced by IL-17A (Q16552 24-155): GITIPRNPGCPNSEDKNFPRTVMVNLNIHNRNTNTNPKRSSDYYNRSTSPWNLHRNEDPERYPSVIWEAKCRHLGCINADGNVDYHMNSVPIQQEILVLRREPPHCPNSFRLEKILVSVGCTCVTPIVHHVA

For CC(=O)N[C@H](C(=O)N[C@@H](Cc1c[nH]cn1)C(=O)N[C@@H](Cc1ccccc1)C(=O)N[C@H](C(=O)N[C@@H](Cc1ccccc1)C(=O)N1CCC[C@H]1C(=O)N[C@@H](CCC(N)=O)C(=O)N[C@@H](CC(=O)O)C(=O)N[C@@H](CC(C)C)C(=O)N[C@@H](Cc1c[nH]c2ccccc12)C(=O)N[C@@H](CCC(=O)O)C(=O)N[C@@H](Cc1c[nH]c2ccccc12)C(=O)N[C@@H](Cc1ccccc1)C(=O)N[C@@H](CCCNC(=N)N)C(=O)N[C@@H](CCCNC(=N)N)C(N)=O)[C@@H](C)O)C(C)C [SEQ ID NO: 129] (Ac-VHFTFPQDLWEWFRR-NH2), the IC50 was < 0.5 µM.
CC(=O)N[C@H](C(=O)N[C@@H](Cc1c[nH]cn1)C(=O)N[C@@H](Cc1ccccc1)C(=O)N[C@@H](CCC(N)=O)C(=O)N[C@@H](Cc1ccccc1)C(=O)N1CCC[C@H]1C(=O)N[C@@H](C)C(=O)N[C@@H](CC(=O)O)C(=O)N[C@@H](CC(C)C)C(=O)N[C@@H](Cc1c[nH]c2ccccc12)C(=O)N[C@@H](CCC(=O)O)C(=O)N[C@@H](Cc1c[nH]c2ccccc12)C(=O)N[C@H](C(=O)N[C@@H](CCCNC(=N)N)C(=O)N[C@@H](CCCNC(=N)N)C(N)=O)C(C)C)C(C)C [SEQ ID NO: 130] (Ac-VHFQFPADLWEWVRR-NH2) was tested, and the IC50 was < 0.5 µM.
With CC(=O)N[C@H](C(=O)N[C@@H](Cc1c[nH]cn1)C(=O)N[C@@H](Cc1ccccc1)C(=O)N[C@@H](CCC(N)=O)C(=O)N[C@@H](Cc1ccccc1)C(=O)N1CCC[C@H]1C(=O)N[C@@H](C)C(=O)N[C@@H](CC(=O)O)C(=O)N[C@@H](Cc1ccccc1)C(=O)N[C@@H](Cc1c[nH]c2ccccc12)C(=O)N[C@@H](CCC(=O)O)C(=O)N[C@@H](Cc1c[nH]c2ccccc12)C(=O)N[C@H](C(=O)N[C@@H](CCCNC(=N)N)C(=O)N[C@@H](CCCNC(=N)N)C(N)=O)C(C)C)C(C)C [SEQ ID NO: 131] (Ac-VHFQFPADFWEWVRR-NH2) the IC50 was < 0.5 µM.
With CC(=O)N[C@H](C(=O)N[C@@H](Cc1c[nH]cn1)C(=O)N[C@@H](Cc1ccccc1)C(=O)N[C@@H](CCC(N)=O)C(=O)N[C@@H](Cc1ccccc1)C(=O)N1CCC[C@H]1C(=O)N[C@@H](C)C(=O)N[C@@H](CC(=O)O)C(=O)N[C@@H](CC(C)C)C(=O)N[C@@H](Cc1ccc(O)cc1)C(=O)N[C@@H](CCC(=O)O)C(=O)N[C@@H](Cc1c[nH]c2ccccc12)C(=O)N[C@H](C(=O)N[C@@H](CCCNC(=N)N)C(=O)N[C@@H](CCCNC(=N)N)C(N)=O)C(C)C)C(C)C [SEQ ID NO: 132] (Ac-VHFQFPADLYEWVRR-NH2) the IC50 was < 0.5 µM.
CC(=O)N[C@H](C(=O)N[C@@H](Cc1c[nH]cn1)C(=O)N[C@@H](Cc1ccccc1)C(=O)N[C@@H](CCC(N)=O)C(=O)N[C@@H](Cc1ccccc1)C(=O)N1CCC[C@H]1C(=O)N[C@@H](C)C(=O)N[C@@H](CC(=O)O)C(=O)N[C@@H](CC(C)C)C(=O)N[C@@H](Cc1c[nH]c2ccccc12)C(=O)N[C@@H](CC(N)=O)C(=O)N[C@@H](Cc1c[nH]c2ccccc12)C(=O)N[C@H](C(=O)N[C@@H](CCCNC(=N)N)C(=O)N[C@@H](CCCNC(=N)N)C(N)=O)C(C)C)C(C)C [SEQ ID NO: 133] (Ac-VHFQFPADLWNWVRR-NH2) was tested, and the IC50 was < 0.5 µM.
CC(=O)N[C@H](C(=O)N[C@@H](Cc1c[nH]cn1)C(=O)N[C@@H](Cc1ccccc1)C(=O)N[C@@H](CCC(N)=O)C(=O)N[C@@H](Cc1ccccc1)C(=O)N1CCC[C@H]1C(=O)N[C@@H](C)C(=O)N[C@@H](CC(=O)O)C(=O)N[C@@H](CC(C)C)C(=O)N[C@@H](Cc1c[nH]c2ccccc12)C(=O)N[C@@H](CCC(=O)O)C(=O)N[C@@H](Cc1ccccc1)C(=O)N[C@H](C(=O)N[C@@H](CCCNC(=N)N)C(=O)N[C@@H](CCCNC(=N)N)C(N)=O)C(C)C)C(C)C [SEQ ID NO: 134] (Ac-VHFQFPADLWEFVRR-NH2) was tested, and the IC50 was < 0.5 µM.
